Experimental data taken from publication PMC11078216, “Discovery of potent and selective activity-based probes (ABPs) for the deubiquitinating enzyme USP30” (RSC Chemical Biology, 2024).
Blank lines part the entries; values can stand above or below the molecule they belong to.

What was measured:
Assay in all cases: ABPP chemical proteomics (LC-MS/MS) in HEK293T cells
Format in all cases: cell-based
CFAP20 = biological target: T1, CFAP20 (Homo sapiens, UniProt Q9Y6A4); details: IMP-2586 labelling vs DMSO, 30 nM, 10 min, HEK293T (Table S4, Fig.5c)
T1 construct: endogenous in cells; host or cells: HEK293T
How it was run: (§1)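 Read-out is quantitative LC-MS/MS of probe-labelled proteins from HEK293T cells treated with […]. Labelling used ABP 2 or ABP 4 in live cells (1 h, 37 °C), followed by lysate click chemistry and streptavidin-type enrichment.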

RER1 = biological target: T2, RER1 (Homo sapiens, UniProt O15258); details: IMP-2586 labelling vs DMSO, 30 nM, 10 min, HEK293T (Table S4, Fig.5c)
T2 construct: endogenous in cells; host or cells: HEK293T
How it was run: as §1

SFT2D3 = biological target: T3, SFT2D3 (Homo sapiens, UniProt Q587I9); details: IMP-2586 labelling vs DMSO, 30 nM, 10 min, HEK293T (Table S4, Fig.5c)
T3 construct: endogenous in cells; host or cells: HEK293T
How it was run: as §1

TMEM109 = biological target: T4, TMEM109 (Homo sapiens, UniProt Q9BVC6); details: IMP-2586 labelling vs DMSO, 30 nM, 10 min, HEK293T (Table S4, Fig.5c)
T4 construct: endogenous in cells; host or cells: HEK293T
How it was run: as §1

MALT1 = biological target: T5, MALT1 (Homo sapiens, UniProt Q9UDY8); details: IMP-2586 labelling vs DMSO, 30 nM, 10 min, HEK293T (Table S4, Fig.5c)
T5 construct: endogenous in cells; host or cells: HEK293T
How it was run: as §1

NPM3 = biological target: T6, NPM3 (Homo sapiens, UniProt O75607); details: IMP-2587 labelling vs DMSO, 30 nM, 10 min, HEK293T (Table S2, Fig.5a)
T6 construct: endogenous in cells; host or cells: HEK293T
How it was run: as §1

HMGCS1 = biological target: T7, HMGCS1 (Homo sapiens, UniProt Q01581); details: IMP-2587 labelling vs DMSO, 30 nM, 10 min, HEK293T (Table S2, Fig.5a)
T7 construct: endogenous in cells; host or cells: HEK293T
How it was run: as §1

NIT2 = biological target: T8, NIT2 (Homo sapiens, UniProt Q9NQR4); details: IMP-2587 labelling vs DMSO, 30 nM, 10 min, HEK293T (Table S2, Fig.5a)
T8 construct: endogenous in cells; host or cells: HEK293T
How it was run: as §1

DCD = biological target: T9, DCD (Homo sapiens, UniProt P81605); details: compound 1 out-competition with IMP-2587 labelling, HEK293T (Table S3, Fig.5b)
T9 construct: endogenous in cells; host or cells: HEK293T
How it was run: as §1

RPL34 = biological target: T10, RPL34 (Homo sapiens, UniProt P49207); details: compound 1 out-competition with IMP-2587 labelling, HEK293T (Table S3, Fig.5b)
T10 construct: endogenous in cells; host or cells: HEK293T
How it was run: as §1

ACTG1 = biological target: T11, ACTG1 (Homo sapiens, UniProt P63261); details: compound 1 out-competition with IMP-2587 labelling, HEK293T (Table S3, Fig.5b)
T11 construct: endogenous in cells; host or cells: HEK293T
How it was run: as §1

RPL10 = biological target: T12, RPL10 (Homo sapiens, UniProt P27635); details: compound 1 out-competition with IMP-2587 labelling, HEK293T (Table S3, Fig.5b)
T12 construct: endogenous in cells; host or cells: HEK293T
How it was run: as §1

IMPDH2 = biological target: T13, IMPDH2 (Homo sapiens, UniProt P12268); details: compound 1 out-competition with IMP-2587 labelling, HEK293T (Table S3, Fig.5b)
T13 construct: endogenous in cells; host or cells: HEK293T
How it was run: as §1

NUB1 = biological target: T14, NUB1 (Homo sapiens, UniProt Q9Y5A7); details: compound 3 out-competition with IMP-2586 labelling, HEK293T (Table S5, Fig.5d)
T14 construct: endogenous in cells; host or cells: HEK293T
How it was run: as §1

LUC7L3 = biological target: T15, LUC7L3 (Homo sapiens, UniProt O95232); details: compound 3 out-competition with IMP-2586 labelling, HEK293T (Table S5, Fig.5d)
T15 construct: endogenous in cells; host or cells: HEK293T
How it was run: as §1

T15 sequence (O95232 whole entry): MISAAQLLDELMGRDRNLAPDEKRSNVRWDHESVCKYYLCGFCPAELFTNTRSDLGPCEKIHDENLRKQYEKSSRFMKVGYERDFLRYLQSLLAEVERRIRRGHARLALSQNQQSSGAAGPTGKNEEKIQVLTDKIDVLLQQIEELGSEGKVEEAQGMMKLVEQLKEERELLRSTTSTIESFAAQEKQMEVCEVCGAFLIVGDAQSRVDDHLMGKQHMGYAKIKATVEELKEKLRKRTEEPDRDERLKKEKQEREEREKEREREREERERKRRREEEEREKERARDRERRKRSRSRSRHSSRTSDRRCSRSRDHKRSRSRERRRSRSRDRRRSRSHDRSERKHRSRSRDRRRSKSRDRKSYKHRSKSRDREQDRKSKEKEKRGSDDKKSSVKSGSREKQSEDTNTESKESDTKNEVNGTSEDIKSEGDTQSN
T2 sequence (O15258 whole entry): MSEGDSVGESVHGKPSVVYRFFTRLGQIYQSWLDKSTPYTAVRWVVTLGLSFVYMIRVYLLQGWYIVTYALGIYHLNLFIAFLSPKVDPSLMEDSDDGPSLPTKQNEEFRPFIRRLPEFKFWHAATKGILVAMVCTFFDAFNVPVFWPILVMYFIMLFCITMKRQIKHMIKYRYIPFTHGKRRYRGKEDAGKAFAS
T8 sequence (Q9NQR4 whole entry): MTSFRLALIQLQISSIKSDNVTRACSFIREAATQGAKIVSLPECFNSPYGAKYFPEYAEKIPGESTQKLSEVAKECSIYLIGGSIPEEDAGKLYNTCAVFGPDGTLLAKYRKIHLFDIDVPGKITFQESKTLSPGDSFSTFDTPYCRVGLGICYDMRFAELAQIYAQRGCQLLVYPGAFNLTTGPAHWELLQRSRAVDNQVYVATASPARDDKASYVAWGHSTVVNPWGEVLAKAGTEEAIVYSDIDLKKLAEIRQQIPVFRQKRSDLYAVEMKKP
T3 sequence (Q587I9 whole entry): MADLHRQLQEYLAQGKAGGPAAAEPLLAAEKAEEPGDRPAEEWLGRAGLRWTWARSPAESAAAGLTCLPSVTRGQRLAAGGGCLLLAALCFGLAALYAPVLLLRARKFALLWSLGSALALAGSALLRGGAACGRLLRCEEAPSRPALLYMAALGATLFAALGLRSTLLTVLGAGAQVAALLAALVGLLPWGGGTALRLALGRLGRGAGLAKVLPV
T6 sequence (O75607 whole entry): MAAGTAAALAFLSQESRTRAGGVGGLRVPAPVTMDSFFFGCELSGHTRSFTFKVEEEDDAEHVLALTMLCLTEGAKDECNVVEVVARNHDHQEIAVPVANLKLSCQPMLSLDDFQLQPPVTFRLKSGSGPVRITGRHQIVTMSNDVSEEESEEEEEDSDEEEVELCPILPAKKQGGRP
T7 sequence (Q01581 whole entry): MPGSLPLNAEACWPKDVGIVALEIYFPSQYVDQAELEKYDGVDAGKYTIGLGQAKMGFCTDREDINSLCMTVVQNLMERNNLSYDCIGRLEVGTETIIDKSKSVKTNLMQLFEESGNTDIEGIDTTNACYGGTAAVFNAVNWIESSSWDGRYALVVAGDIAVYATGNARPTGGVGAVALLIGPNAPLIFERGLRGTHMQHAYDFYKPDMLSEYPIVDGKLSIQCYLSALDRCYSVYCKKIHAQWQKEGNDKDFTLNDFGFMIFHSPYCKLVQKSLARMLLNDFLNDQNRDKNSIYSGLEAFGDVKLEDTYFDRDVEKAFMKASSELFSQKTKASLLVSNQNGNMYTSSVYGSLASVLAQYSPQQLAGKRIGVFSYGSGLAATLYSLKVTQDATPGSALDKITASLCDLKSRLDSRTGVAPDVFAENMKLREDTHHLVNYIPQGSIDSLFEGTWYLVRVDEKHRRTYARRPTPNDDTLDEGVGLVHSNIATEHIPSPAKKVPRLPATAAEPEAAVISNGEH
T14 sequence (Q9Y5A7 whole entry): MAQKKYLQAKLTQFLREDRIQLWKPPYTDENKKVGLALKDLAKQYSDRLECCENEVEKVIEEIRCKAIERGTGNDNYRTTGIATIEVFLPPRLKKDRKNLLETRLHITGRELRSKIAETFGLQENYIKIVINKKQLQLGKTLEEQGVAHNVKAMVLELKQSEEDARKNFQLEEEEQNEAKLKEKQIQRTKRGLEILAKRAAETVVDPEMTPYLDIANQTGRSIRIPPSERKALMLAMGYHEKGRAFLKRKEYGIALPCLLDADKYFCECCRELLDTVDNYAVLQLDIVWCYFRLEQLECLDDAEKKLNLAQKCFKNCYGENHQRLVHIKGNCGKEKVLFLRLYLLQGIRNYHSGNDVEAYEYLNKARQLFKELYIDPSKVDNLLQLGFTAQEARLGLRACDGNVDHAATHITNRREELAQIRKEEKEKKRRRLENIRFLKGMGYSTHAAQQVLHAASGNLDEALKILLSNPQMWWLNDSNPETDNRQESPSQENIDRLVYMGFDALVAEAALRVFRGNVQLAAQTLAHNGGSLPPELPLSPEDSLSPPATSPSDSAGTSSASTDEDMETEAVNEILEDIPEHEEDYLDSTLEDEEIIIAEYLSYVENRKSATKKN
T5 sequence (Q9UDY8 whole entry): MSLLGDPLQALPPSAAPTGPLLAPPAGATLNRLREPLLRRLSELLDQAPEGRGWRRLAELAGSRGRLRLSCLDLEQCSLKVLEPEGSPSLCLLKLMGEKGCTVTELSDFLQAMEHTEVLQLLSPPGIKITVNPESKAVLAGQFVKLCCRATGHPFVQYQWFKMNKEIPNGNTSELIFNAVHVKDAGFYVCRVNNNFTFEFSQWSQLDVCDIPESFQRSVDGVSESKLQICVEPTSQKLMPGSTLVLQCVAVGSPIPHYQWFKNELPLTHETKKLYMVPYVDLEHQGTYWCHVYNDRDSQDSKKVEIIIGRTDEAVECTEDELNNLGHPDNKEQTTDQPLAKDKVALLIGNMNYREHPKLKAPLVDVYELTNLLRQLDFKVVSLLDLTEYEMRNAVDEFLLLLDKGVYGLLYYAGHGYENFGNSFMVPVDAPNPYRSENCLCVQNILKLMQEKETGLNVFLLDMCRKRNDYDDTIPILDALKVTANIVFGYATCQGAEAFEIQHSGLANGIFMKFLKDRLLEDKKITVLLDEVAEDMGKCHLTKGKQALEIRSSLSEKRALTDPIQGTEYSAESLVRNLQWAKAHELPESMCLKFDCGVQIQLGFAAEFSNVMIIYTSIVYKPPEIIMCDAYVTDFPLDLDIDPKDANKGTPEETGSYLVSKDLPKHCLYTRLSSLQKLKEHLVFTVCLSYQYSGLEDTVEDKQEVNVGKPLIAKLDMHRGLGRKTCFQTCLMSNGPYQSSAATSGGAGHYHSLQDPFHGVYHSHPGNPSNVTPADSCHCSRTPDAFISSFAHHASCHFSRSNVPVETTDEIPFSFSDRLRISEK
T4 sequence (Q9BVC6 34-243): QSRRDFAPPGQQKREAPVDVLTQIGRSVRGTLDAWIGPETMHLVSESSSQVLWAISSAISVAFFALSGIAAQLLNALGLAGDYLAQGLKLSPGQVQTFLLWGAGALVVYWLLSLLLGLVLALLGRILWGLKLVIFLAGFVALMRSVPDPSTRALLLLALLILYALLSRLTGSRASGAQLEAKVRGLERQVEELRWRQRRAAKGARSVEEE
T1 sequence (Q9Y6A4 whole entry): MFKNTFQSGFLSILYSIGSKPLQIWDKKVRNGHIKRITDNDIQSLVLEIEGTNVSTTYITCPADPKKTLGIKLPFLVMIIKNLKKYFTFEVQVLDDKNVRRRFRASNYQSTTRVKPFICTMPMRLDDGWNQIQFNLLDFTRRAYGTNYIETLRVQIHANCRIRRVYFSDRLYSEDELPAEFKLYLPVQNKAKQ
T9 sequence (P81605 20-110): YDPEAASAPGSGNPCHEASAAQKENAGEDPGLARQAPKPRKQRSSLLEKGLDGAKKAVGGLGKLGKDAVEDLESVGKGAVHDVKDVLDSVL

SMILES: N#CN1CC[C@@H](NC(=O)c2cc(-c3ccccc3Oc3ccc(N=[N+]=[N-])cc3)n[nH]2)C1 [IMP-2586]
Difference (log2 fold change of enrichment) (CFAP20): -0.41
Difference (log2 fold change of enrichment) (RER1): -1.34
Difference (log2 fold change of enrichment) (SFT2D3): -1.51
Difference (log2 fold change of enrichment) (TMEM109): -1.56
Difference (log2 fold change of enrichment) (MALT1): 0.75

SMILES: C#Cc1cccc(-c2cc(NC(=O)CC3CCN(C#N)C3)on2)c1 (stereo not drawn) [IMP-2587]
Difference (log2 fold change of enrichment) (NPM3): 0.89
Difference (log2 fold change of enrichment) (HMGCS1): 0.75
Difference (log2 fold change of enrichment) (NIT2): 0.61

Difference (log2 fold change of enrichment) (DCD): -0.34
Difference (log2 fold change of enrichment) (RPL34): -0.67
Difference (log2 fold change of enrichment) (ACTG1): -0.57
Difference (log2 fold change of enrichment) (RPL10): -0.52
Difference (log2 fold change of enrichment) (IMPDH2): -0.70
SMILES: N#CN1CC[C@H](CC(=O)Nc2cc(-c3cccc(Cl)c3)no2)C1 [compound 1, reference compound]

Difference (log2 fold change of enrichment) (NUB1): -0.38
Difference (log2 fold change of enrichment) (LUC7L3): -0.51
SMILES: N#CN1CC[C@@H](NC(=O)c2cc(-c3ccccc3Oc3ccccc3)n[nH]2)C1 [compound 3, reference compound]
